These results are taken from US6159932A, “Endoparasiticidal compositions” (Bayer Aktiengesellschaft, priority 1995, dated 2000).

Test [1] has as its system hookworm Uncinaria stenocephala. Conditions: 500 μg/kg, dogs; cited from earlier work.
In test [2] the test system is Nematospiroides dubius. In words: In vivo nematode test, Nematospiroides dubius in the mouse. The conditions noted are these: oral. As for the experimental part: Nematospiroides dubius in the Mouse
Mice are infected experimentally with nematodes of the species Nematospiroides dubius. For infection, the mice are administered orally with Nematospiroides dubius as 60 filariform larvae.
After the prepatency period has expired, the suspended active substances are administered orally on day 12 after infection.
(§1) Determination of the Activity
The mice are selected on day 20 after infection. The adult parasites in the Duodenum are counted by means of a compressor. The success of treatment in the dose group is made relative to the untreated control group.

Test [3] relates to Heterakis spumosa. In words: In vivo nematode test, Heterakis spumosa in the mouse. The conditions noted are these: oral. As for the experimental part: Heterakis spumosa in the Mouse
Mice are infected experimentally with nematodes of the species Heterakis spumosa. For infection, the mice are administered orally with Heterakis spumosa as 90 embryonate eggs.
After the prepatency period has expired, the suspended active substances are administered orally on day 46 after infection.
as §1
The mice are selected on day 54 after infection. The adult parasites are counted in the colon and caecum using a microscope. The success of treatment in the dose group is made relative to the untreated control group.

Test [4] has as its system Ancylostoma caninum. Briefly: In-vivo nematode test, Ancylostoma caninum in dogs. Conditions: oral. The protocol: Ancylostoma caninum in dogs
Beagle puppies were experimentally infested with hookworms (Ancylostoma caninum). Amount of infestation material were 250 L3 larvae.
After the prepatent period, when mature worms are present within the gastrointestinal tract, the dogs were orally treated with the test compounds as pure active in gelatine capsules.
Determination of the Efficacy was Carried Out According to the Following Two Methods
1. Counts of worm eggs within the dogs faces before and after treatment.
2. Percent efficacy at a critical test calculated using the formula: [formula]

For test [5], the system named is hookworm and whipworm. Conditions: human medicine, high dosage on several days in succession; cited from earlier work.
Where [6] appears, read: ivermectin B1a/B1b 0.1 mg/kg alone.

Milbemycin: the “action against the hookworm Uncinaria stenocephala” value in test [1] is listed as “distinct weakness in its action”.

For the molecule `CC(C)C[C@H]1C(=O)O[C@H](Cc2ccccc2)C(=O)N(C)[C@@H](CC(C)C)C(=O)O[C@H](C)C(=O)N(C)[C@@H](CC(C)C)C(=O)O[C@H](Cc2ccccc2)C(=O)N(C)[C@@H](CC(C)C)C(=O)O[C@H](C)C(=O)N1C` [PF 1022 A], the Reduction rate in test [2] (PF 1022 A 25.0 mg/kg alone), in test [2] (PF 1022 A 50.0 mg/kg alone), in test [3] (PF 1022 A 5.0 mg/kg alone), in test [3] (PF 1022 A 10.0 mg/kg alone), in test [3] (PF 1022 A 25.0 mg/kg alone) and in test [3] (PF 1022 A 50.0 mg/kg alone) was 0% in each case. Moreover, the Reduction rate in test [4] (PF 1022 A 0,5 mg/kg alone) amounted to 0%; in test [4] (PF 1022 A 1,0 mg/kg alone) it was 100%.

Take “22,23-dihydroavermectins B1a /B1b [Ivermectin B1a /B1b]”: the Reduction rate in test [2] (setting [6]) was 0%; in test [3] (setting [6]) it was under 50%; in test [4] (ivermectin B1a/B1b 0,01 mg/kg alone), 100%; in test [4] (ivermectin B1a/B1b 0,001 mg/kg alone) it was 0%. The “efficacy in hookworm and whipworm infected patients” value in test [5] is given as “ineffective”.
